The values that follow come from US20110155157A1, “CIGARETTE FILTER CONTAINING ROSEMARY EXTRACT AND A METHOD OF REDUCING DNA DAMAGE CAUSED BY HARMFUL AGENTS IN CIGARETTE SMOKE BY USE OF SAID FILTER” (priority 2006, published 2011).

This assay has as its system calf thymus DNA. In words: BPDE-dG adduct formation by cigarette smoke solution in a cell-free system with DNA and (+)-BP-7,8-diol.

Catalase: the “% BPDE-dG relative to standard CS” value (CSS diluted 1:19 with PBS pH 7.4, (+) BaP-7,8-diol, room temperature 2 h) is 12%. The “effect on the (−)-anti-BPDE-dG produced” value (in words) is listed as “inhibited the formation of the adduct”.
